The values below come from US7745377B2, “Labeled peptides, proteins and antibodies and processes and intermediates useful for their preparation” (priority 2000, dated 2010).

Data set [1] can be described thus: Spectral data of merocyanine dyes (absorbance and fluorescence spectra). It is filed as physicochemical. On the set-up: Absorption Maximum / Emission Maximum: unit not given here. The following applies: n-butanol. The method, then:
Absorbance spectra were recorded on Hewlett-Packard HP8452 diode array spectrophotometer and fluorescence spectra were recorded on SPEX Fluorolog 2 spectrometer.

The next data set addresses T1, Rac1 (Homo sapiens, UniProt P63000).
T1 construct: 6His; made in house
Kind of data set: Fluorescence of mero-CBD with activated Rac1. The format is binding. The following applies: Rac1 pre-equilibrated with GTPγS. The method, then: (§1) Analyses of the solvatochromic activation indicator—A solution of mero-CBD (300 nM) in assay buffer was mixed 1:1 (v/v) with solutions of cdc42 (concentration as indicated), pre-equilibrated with 10 mM GDP or GTPγS as described in Knaus, U. G., Heyworth, P. G., Kinsella, B. T., Curnutte, J. T., and Bokoch, G. M. (1992) J. Biol. Chem. 267, 23575-23582. Emission wavelength of 630 nm and excitation wavelength of 600 nm were used to acquire excitation and emission spectra, respectively. For nucleotide dependence, cdc42 (500 nM) was pre-incubated with varying concentrations of GTPγS (1 to 500 nM). Rac1 and RhoA GTPases were pre-equilibrated with GTP […]S in the same manner.
(§2) Fluorescence increase as a measure of CBD-cdc42 interaction—The functionality and specificity of mero-CBD was characterized by measuring fluorescence in the presence of saturating amounts of cdc42-GDP or cdc42-GTPγS. […] Negligible increase (<5%) was also observed in the presence of activated Rac1. No effect on the mero-CBD fluorescence was observed when RhoA-GTPγS was present. Furthermore, even in the presence of excess of activated Rac1 and RhoA, GDP- and GTPγS-bound forms of cdc42 were easily distinguished by CBD-A4C fluorescence (data not shown).

The target of the next data set is T2, cdc42 (Homo sapiens, UniProt P60953).
T2 construct: 6His; made in house
Kind of data set: Fluorescence of mero-CBD solvatochromic activation indicator with cdc42. The following applies: for increase of fluorescence intensity on binding activated cdc42: cdc42-GTPγS, excitation and emission maxima. It is filed as binding. The method, then: as §1, §2

The target in a further data set is T3, RhoA (Homo sapiens, UniProt P61586).
T3 construct: 6His; made in house
Kind of data set: Fluorescence of mero-CBD with RhoA-GTPγS. The format is binding. To be noted: RhoA-GTPγS present. The method, then: as §1, §2

T2 sequence (P60953 whole entry, species assumed): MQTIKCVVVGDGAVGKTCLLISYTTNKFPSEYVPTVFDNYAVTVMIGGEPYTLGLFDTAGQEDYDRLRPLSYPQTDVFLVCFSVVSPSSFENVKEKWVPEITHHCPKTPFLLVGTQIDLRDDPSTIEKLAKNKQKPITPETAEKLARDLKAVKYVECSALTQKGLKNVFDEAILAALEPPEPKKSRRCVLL
T3 sequence (P61586 whole entry, species assumed): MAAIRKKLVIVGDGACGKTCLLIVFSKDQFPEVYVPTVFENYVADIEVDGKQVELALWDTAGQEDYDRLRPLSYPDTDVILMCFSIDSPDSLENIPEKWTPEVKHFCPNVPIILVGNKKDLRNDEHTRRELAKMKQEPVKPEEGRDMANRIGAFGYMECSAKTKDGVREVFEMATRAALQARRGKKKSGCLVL

Regarding `O=C1/C(=C/C=C/C=C2/Sc3ccccc3N2CCCS(=O)(=O)[O-])S(=O)(=O)c2ccccc21.[Na+]` [Compound 2], in data set [1], the “Absorption Maximum” value is 603, the “Emission Maximum” value is given as 623, the “Extinction coefficient (*10^−3)” value was found to be 100 and the “Quantum Yield” value worked out at 0.10.

Regarding `CC1(C)/C(=C/C=C/C=C2/C(=O)c3ccccc3S2(=O)=O)N(CCCS(=O)(=O)[O-])c2ccccc21.[Na+]` [Compound 3], in data set [1], the “Extinction coefficient (*10^−3)” value is on record as 120 and the “Quantum Yield” value worked out at 0.17.

On to `CC1(C)/C(=C/C=C/C=C2/C(=O)c3ccccc3C2=C(C#N)C#N)N(CCCS(=O)(=O)[O-])c2ccccc21.[Na+]` [Compound 4], for which, in data set [1], the “Extinction coefficient (*10^−3)” value was found to be 80 and the “Quantum Yield” value was 0.10.

B1: mero-CBD: cdc42 binding domain of WASP (amino acids 201 to 321) conjugated to the merocyanine dye shown in FIG. 11 (conjugate)
chain: DIQNPDITSSRYRGLPAPGPSPADKKRSGKKKISKADIGAPSGFKHVSHVGWDPQNGFDVNNLDPDLRSLCSRAGISEAQLTDAETSKLIYDFIEDQGGLEAVRQEMRRQEPLPPPPPPSHHHHHH
As for B1, the “fluorescence increase in presence of activated Rac1” value in the data set with Rac1 is reported as below 5%. Also, the “increase of fluorescence intensity on binding activated cdc42” value was “Approximately 3.5 fold” in the data set with cdc42 and “up to 3.5 fold” in the data set with cdc42 (listed as CBD biosensor). Further, the “fluorescence increase in presence of cdc42-GDP” value with cdc42 (saturating cdc42-GDP) was “not cdc42-GDP”. Also, the “effect on mero-CBD fluorescence of RhoA-GTPγS” value with RhoA is “No effect”.
